# In article PMC4838552 (ChemMedChem, 2016):
# Key:
# [1] = Caco-2 permeability study; format: in vitro ADME; settings: human
# Protein binding study = format: in vitro ADME
# [2] = target: ssDNA binding to RPA70AB in the RPA70NAB construct (Homo sapiens, UniProt P27694); assay: Fluorescence-based DNA binding assay; settings: Kd for ssDNA binding to RPA70AB in RPA70NAB, absence vs presence of compound
# RPA70N = RPA70N (Homo sapiens, UniProt P27694); assay: FPA competition assay; format: binding; settings: for LE (ligand efficiency): LE = 1.4*pKd/HAC, using the FPA data
Papp A→B [1],fraction unbound (Protein binding study),effect on ssDNA binding to RPA [2],LE (ligand efficiency) (RPA70N),potency relative to 11 (fold less potent) (RPA70N; compared with compound 11),Structure (SMILES)
29.2 ×10⁻⁶ cm/s,0.002,does not affect ssDNA binding to RPA,0.27,,"Cc1ccc(C(=O)Nc2cc(Br)ccc2C(=O)O)cc1S(=O)(=O)Nc1ccc(Cl)c(Cl)c1 [Compound 20c, 4-Bromo-2-(3-(N-(3,4-dichlorophenyl)sulfamoyl)-4-methylbenzamido)benzoic acid]"
,,,0.21,equipotent,"Cc1ccc(C(=O)Nc2ccccc2C(=O)O)cc1S(=O)(=O)Nc1cccc(Cl)c1 [Compound 18, 2-(3-(N-(3-chlorophenyl)sulfamoyl)-4-methylbenzamido)benzoic acid]"
,,,0.21,,"Cc1ccc(C(=O)Nc2ccccc2C(=O)O)cc1S(=O)(=O)Nc1ccc(Br)cc1 [Compound 11, 2-(3-(N-(4-bromophenyl)sulfamoyl)-4-methylbenzamido)benzoic acid]"
